What was measured:
Assay in all cases: relative viability (nuclei count vs DMSO), 5 days (fraction); higher = more cells survive
[1] = compound: CC1=C(CC(=O)O)c2cc(F)ccc2/C1=C\c1ccc([S+](C)[O-])cc1 [Sulindac] + C[C@]1(O)C[C@@H](c2nc(-c3ccc4ccc(-c5ccccc5)nc4c3)c3c(N)nccn32)C1 [Linsitinib] (partner 1 µM)
Outline: (§1)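 Lung cancer cell lines were seeded in 1536-well plates and dosed by pin tool the next day, with either a single drug or a fixed anchor-drug dose combined with five library-drug doses (not always all listed) spaced in √10 steps. Five days later, one step fixed the cells and stained their nuclei (final 0.05% Triton X-100, 1% formaldehyde, 1 ug/ml Hoechst), and nuclei were counted on 4× images. Relative viability is the nuclei count in treated wells divided by the count in vehicle wells, and each value is the median of duplicate plates.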

[2] = compound: CC1=C(CC(=O)O)c2cc(F)ccc2/C1=C\c1ccc([S+](C)[O-])cc1 [Sulindac] + N=C(N)NC(=N)NCCc1ccccc1 [Phenformin] (partner 250 µM)
Outline: as §1

[3] = compound: O=c1[nH]cc(F)c(=O)[nH]1 [5-Fluorouracil] + Cc1nc(Nc2ncc(C(=O)Nc3c(C)cccc3Cl)s2)cc(N2CCN(CCO)CC2)n1 [Dasatinib] (partner 0.075 µM)
Outline: as §1

[4] = compound: CC1=C(CC(=O)O)c2cc(F)ccc2/C1=C\c1ccc([S+](C)[O-])cc1 [Sulindac] + CC(C)C[C@H](NC(=O)[C@H](Cc1ccccc1)NC(=O)c1cnccn1)B(O)O [Bortezomib] (partner 0.002 µM)
Outline: as §1

NCI-H1793 gave a relative viability ([1]; first compound 0.08 µM) of 0.856, a relative viability ([1]; first compound 0.253 µM) of 0.77 and a relative viability ([1]; first compound 0.8 µM) of 0.471. It also gave a relative viability ([1]; first compound 2.53 µM) of 1.12, a relative viability ([1]; first compound 8 µM) of 1.12 and a relative viability ([2]; first compound 0.08 µM) of 0.404. For the same cell line, the relative viability ([2]; first compound 0.253 µM) was 0.396, the relative viability ([2]; first compound 0.8 µM) was 0.272 and the relative viability ([2]; first compound 2.53 µM) was 0.372. The relative viability ([2]; first compound 8 µM) was 0.333, the relative viability ([3]; first compound 0.02 µM) was 0.378 and the relative viability ([3]; first compound 0.2 µM) was 0.413. For the same cell line, the relative viability ([3]; first compound 0.6325 µM) was 0.368 and the relative viability ([3]; first compound 2 µM) was 0.313.
NCI-H522 was tested, and the relative viability ([2]; first compound 0.08 µM) was 0.709, the relative viability ([2]; first compound 0.253 µM) was 0.715 and the relative viability ([2]; first compound 0.8 µM) was 0.689. The relative viability ([2]; first compound 2.53 µM) was 0.688, the relative viability ([2]; first compound 8 µM) was 0.674 and the relative viability ([3]; first compound 0.02 µM) was 0.844. The relative viability ([3]; first compound 0.2 µM) was 0.852, the relative viability ([3]; first compound 0.6325 µM) was 0.979 and the relative viability ([3]; first compound 2 µM) was 0.868.
SK-MES-1 showed a relative viability ([1]; first compound 0.08 µM) of 1.11, a relative viability ([1]; first compound 0.253 µM) of 1.22 and a relative viability ([1]; first compound 0.8 µM) of 0.809. For the same cell line, the relative viability ([1]; first compound 2.53 µM) was 1.08, the relative viability ([1]; first compound 8 µM) was 1.18 and the relative viability ([2]; first compound 0.08 µM) was 0.798. For the same cell line, the relative viability ([2]; first compound 0.253 µM) was 0.77, the relative viability ([2]; first compound 0.8 µM) was 0.591 and the relative viability ([2]; first compound 2.53 µM) was 0.662. For the same cell line, the relative viability ([2]; first compound 8 µM) was 0.73, the relative viability ([3]; first compound 0.02 µM) was 0.293 and the relative viability ([3]; first compound 0.2 µM) was 0.257. It also gave a relative viability ([3]; first compound 0.6325 µM) of 0.227 and a relative viability ([3]; first compound 2 µM) of 0.218.
With EBC-1 the relative viability ([4]; first compound 0.08 µM) was 0.585, the relative viability ([4]; first compound 0.253 µM) was 0.557 and the relative viability ([4]; first compound 0.8 µM) was 0.56. The relative viability ([4]; first compound 2.53 µM) was 0.474, the relative viability ([4]; first compound 8 µM) was 0.663 and the relative viability ([1]; first compound 0.08 µM) was 0.937. For the same cell line, the relative viability ([1]; first compound 0.253 µM) was 1.16, the relative viability ([1]; first compound 0.8 µM) was 0.509 and the relative viability ([1]; first compound 2.53 µM) was 1.04. The relative viability ([1]; first compound 8 µM) was 0.989.
Cell Line LK-2 has a relative viability ([1]; first compound 0.08 µM) of 0.464, a relative viability ([1]; first compound 0.253 µM) of 0.376 and a relative viability ([1]; first compound 0.8 µM) of 0.532. For the same cell line, the relative viability ([1]; first compound 2.53 µM) was 0.417, the relative viability ([1]; first compound 8 µM) was 0.577 and the relative viability ([2]; first compound 0.08 µM) was 0.412. The relative viability ([2]; first compound 0.253 µM) was 0.421, the relative viability ([2]; first compound 8 µM) was 0.529 and the relative viability ([3]; first compound 0.02 µM) was 0.42. It also gave a relative viability ([3]; first compound 0.2 µM) of 0.29, a relative viability ([3]; first compound 0.6325 µM) of 0.256 and a relative viability ([3]; first compound 2 µM) of 0.237.
For NCI-H1650, the relative viability ([4]; first compound 0.08 µM) was 0.31, the relative viability ([4]; first compound 0.253 µM) was 0.193 and the relative viability ([4]; first compound 0.8 µM) was 0.224. For the same cell line, the relative viability ([4]; first compound 2.53 µM) was 0.204, the relative viability ([4]; first compound 8 µM) was 0.213 and the relative viability ([2]; first compound 0.08 µM) was 0.372. The relative viability ([2]; first compound 0.253 µM) was 0.481, the relative viability ([2]; first compound 2.53 µM) was 0.41 and the relative viability ([2]; first compound 8 µM) was 0.53. The relative viability ([3]; first compound 0.02 µM) was 0.297, the relative viability ([3]; first compound 0.2 µM) was 0.291 and the relative viability ([3]; first compound 0.6325 µM) was 0.202. It also gave a relative viability ([3]; first compound 2 µM) of 0.218.
IA-LM was tested, and the relative viability ([4]; first compound 0.08 µM) was 0.811, the relative viability ([4]; first compound 0.253 µM) was 0.91 and the relative viability ([4]; first compound 2.53 µM) was 0.977. For the same cell line, the relative viability ([4]; first compound 8 µM) was 0.89, the relative viability ([1]; first compound 0.08 µM) was 0.527 and the relative viability ([1]; first compound 0.253 µM) was 0.681. For the same cell line, the relative viability ([1]; first compound 2.53 µM) was 0.826 and the relative viability ([1]; first compound 8 µM) was 0.423.
For NCI-H1395, the relative viability ([1]; first compound 0.08 µM) was 1.09, the relative viability ([1]; first compound 0.253 µM) was 1.07 and the relative viability ([1]; first compound 0.8 µM) was 0.993. The relative viability ([1]; first compound 2.53 µM) was 0.948, the relative viability ([1]; first compound 8 µM) was 1.18 and the relative viability ([2]; first compound 0.08 µM) was 0.427. For the same cell line, the relative viability ([2]; first compound 0.253 µM) was 0.448, the relative viability ([2]; first compound 0.8 µM) was 0.478 and the relative viability ([2]; first compound 2.53 µM) was 0.44. The relative viability ([2]; first compound 8 µM) was 0.526, the relative viability ([3]; first compound 0.02 µM) was 0.39 and the relative viability ([3]; first compound 0.2 µM) was 0.45. For the same cell line, the relative viability ([3]; first compound 0.6325 µM) was 0.367 and the relative viability ([3]; first compound 2 µM) was 0.442.

Reference: the supplement of paper PMC10307832
